Reference: publication PMC3677654, “Soy Glycinin Contains a Functional Inhibitory Sequence against Muscle-Atrophy-Associated Ubiquitin Ligase Cbl-b” (International Journal of Endocrinology, 2013)
Entries after “also recorded” stand apart in the source; their conditions may differ.

Columns and labels:
[1] = tested on: Cbl-b-mediated ubiquitination of IRS-1; experiment: Cbl-b-mediated IRS-1 ubiquitination in transfected HEK293 cells; assay type: cell-based, human Cbl-b, rat IRS-1; conditions: 120 μM, 10 ng/mL IGF-1 for 1 h, 100 nM epoxomicin, immunoblot
Procedure: HEK293 cells were maintained in Dulbecco's modified Eagle medium (DMEM) containing 10% fetal bovine serum, 100 U/mL penicillin, and 100 μg/mL streptomycin at 37°C under 5% CO2-[…] gas mixture.
(§1) HEK293 cells (40–60% of confluence) were transfected with plasmid vectors, using Hily Max lipofection reagent (DOJINDO, Kumamoto, Japan), as described previously. The expression plasmids used in this study were pCEFL-human Cbl-b-HA, pcDNA3.1-rat IRS-1-V5, and pcDNA3-FLAG-Ubiquitin.
(§2) Immunoblot and immunoprecipitation analyses were performed as described previously. The following antibodies were used: anti-actin (Calbiochem, La Jolla, CA, USA), anti-HA.11 (BabCo, Richmond, CA, USA), anti-V5 (Invitrogen, Carlsbad, CA, USA), anti-FLAG M2 (Sigma, St. Louis, MO, USA), anti-IRS-1 (Upstate Biotechnology, Lake Placid, NY, USA), anti-Akt-1 (PharMingen International, Tokyo), and anti-phospho-S^473-Akt-1 (Cell Signaling Technology, Beverly, MA, USA).
We used the following pentapeptides or hexapeptides derived from soy: soy-glycinin-derived peptide, soy-β-conglycinin-derived peptide, lipoprotein- (LP-) derived peptide, and soy protein isolate (SPI). These peptides were kindly provided by Fuji Oil Co. (Osaka, Japan). […] A patent application was lodged for the sequence of this peptide (Pat. no. 5113346). […] These peptides were kindly provided by Otsuka Pharmaceutical Co. (Tokushima, Japan). […]

[2] = tested on: interaction between Cbl-b and IRS-1; experiment: Interaction between Cbl-b and IRS-1 in HEK293 cells (co-immunoprecipitation); assay type: cell-based, human Cbl-b, rat IRS-1; conditions: 120 μM, anti-IRS-1 immunoprecipitates
Procedure: as §1, §2
Figure 3 Inhibitory effect of Cblin-like synthetic peptide on Cbl-b-mediated degradation and ubiquitination of IRS-1. HEK293 cells were transfected with mock vector/pCEFL-Cbl-b-HA, pcDNA3.1-rat IRS-1-V5, and pcDNA3-FLAG-Ubiquitin and then treated with 100 nM epoxomicin at 2 hours before treatment with each peptide at the indicated concentrations. One hour later, these cells were treated with 10 ng/mL IGF-1 for 1 hour. Immunoprecipitates (IP) from whole cell lysates incubated with an anti-IRS-1 antibody were subjected to immunoblot (IB) analysis for the indicated proteins. […]

[3] = tested on: Cbl-b-mediated ubiquitination of IRS-1; conditions: ref [4], cited from earlier work; for Inhibitory activity on Cbl-b-mediated IRS-1 ubiquitination: in words
Source text: These peptides were kindly provided by Fuji Oil Co. (Osaka, Japan). […] A patent application was lodged for the sequence of this peptide (Pat. no. 5113346).

[4] = tested on: denervated skeletal muscle of mice; conditions: ref [4], cited from earlier work
Source text: Therefore, we hypothesized that foodstuffs that contain Cblin-like amino acid sequence can be used to prevent unloading-induced muscle atrophy.

Substance	Inhibition of IRS-1 ubiquitination [1]	Inhibition of interaction between Cbl-b and IRS-1 [2]	IC50 ([3]; approximate) [µM]	Inhibitory activity on Cbl-b-mediated IRS-1 ubiquitination [3]	Prevention of denervation-induced muscle atrophy ([4]; mice)	Expression of MAFbx/atrogin-1 [4]
DGpYMP [Cblin]	inhibited IRS-1 ubiquitination	inhibited IRS-1 ubiquitination and interaction between Cbl-b and IRS-1	~120	exhibited inhibitory activity on Cbl-b-mediated IRS-1 ubiquitination; also recorded: inhibited Cbl-b-mediated ubiquitination and degradation of IRS-1 both in vitro and in vivo	inhibited Cbl-b-mediated degradation of IRS-1, resulting in suppression of denervation-mediated muscle atrophy; also recorded: prevented denervation-induced muscle atrophy in mice	inhibited Cbl-b-mediated IRS-1 ubiquitination and expression of MAFbx/atrogin-1
VGpYLR	–	–	–	no inhibitory activity against Cbl-b-mediated IRS-1 ubiquitination	–	–
